According to ChEMBL document CHEMBL4371005, “Overview of the Development of DprE1 Inhibitors for Combating the Menace of Tuberculosis” (J Med Chem, 2018):
pIC50, pKd: −log10 of the molar value. ≈ marks a conversion by molar mass, not a printed value.

Experiments:
[1] = test system: Mycobacterium tuberculosis; assay: Antimycobacterial activity against GFP-fused Mycobacterium tuberculosis H37Rv by resazurin dye-based micro-broth dilution method; assay type: functional
[2] = target: T1, Decaprenylphosphoryl-beta-D-ribose oxidase (Mycobacterium tuberculosis (strain ATCC 25618 / H37Rv), UniProt P9WJF1); assay: Inhibition of Mycobacterium tuberculosis H37Rv DprE1
T1 sequence (P9WJF1 whole entry): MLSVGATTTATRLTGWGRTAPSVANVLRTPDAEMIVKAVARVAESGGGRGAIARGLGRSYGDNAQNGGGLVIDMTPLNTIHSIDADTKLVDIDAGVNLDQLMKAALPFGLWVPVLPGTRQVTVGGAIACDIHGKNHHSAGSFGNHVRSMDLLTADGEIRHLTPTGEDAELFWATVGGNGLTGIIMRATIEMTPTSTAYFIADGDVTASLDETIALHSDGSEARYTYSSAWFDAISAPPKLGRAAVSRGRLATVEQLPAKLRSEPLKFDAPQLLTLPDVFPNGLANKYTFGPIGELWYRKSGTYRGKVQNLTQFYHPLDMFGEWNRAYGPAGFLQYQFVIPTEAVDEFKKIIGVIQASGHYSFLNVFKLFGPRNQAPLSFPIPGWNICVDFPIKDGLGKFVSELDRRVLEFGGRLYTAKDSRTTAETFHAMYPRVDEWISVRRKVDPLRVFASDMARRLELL

[3] = test system: Mycobacterium tuberculosis; assay: Antimycobacterial activity against Mycobacterium tuberculosis H37Rv after overnight incubation by REMA method; assay type: functional
[4] = target: T2, Decaprenylphosphoryl-beta-D-ribose oxidase (Mycobacterium tuberculosis (strain ATCC 25618 / H37Rv)) (UniProt P9WJF1); assay: Inhibition of Mycobacterium tuberculosis H37Rv DprE1 at 50 uM relative to control
T2 sequence (whole entry): T1 sequence (P9WJF1 whole entry)

[5] = test system: Mycobacterium tuberculosis; assay: Antimycobacterial activity against Mycobacterium tuberculosis H37Rv after 24 hrs by REMA method; assay type: functional
[6] = test system: Mycobacterium tuberculosis; assay: Antimycobacterial activity against GFP-fused Mycobacterium tuberculosis H37Rv after 7 days by fluorescence assay; assay type: functional; conditions: 168 h
[7] = test system: Mycobacterium tuberculosis; assay: Antimycobacterial activity against Mycobacterium tuberculosis after 5 days by turbidity assay; assay type: functional; conditions: 120 h
[8] = target: T2, Decaprenylphosphoryl-beta-D-ribose oxidase (Mycobacterium tuberculosis (strain ATCC 25618 / H37Rv)); assay: Ratio of IC50 for inhibition of Mycobacterium tuberculosis H37Rv DprE1 using FPR as substrate in presence of SAM by resazurin dye-based spectrofluorimetric analysis to IC50 for inhibition of Mycobacterium tuberculosis H37Rv DprE1 using FPR as substrate in absence of SAM by resazurin dye-based spectrofluorimetric analysis
[9] = target: T1, Decaprenylphosphoryl-beta-D-ribose oxidase; assay: Inhibition of Mycobacterium tuberculosis H37Rv DprE1 using FPR as substrate preincubated for 6.5 hrs followed by substrate addition by resazurin dye-based spectrofluorimetric analysis
[10] = test system: Mycobacterium tuberculosis; assay: Antimycobacterial activity against Mycobacterium tuberculosis H37Rv infected in C57BL/6 mouse primary macrophages assessed as reduction in colony forming unit at 5 uM after 2 hrs followed by compound wash out and measured after 7 days by serial dilution method relative to control; assay type: functional
[11] = test system: Mycobacterium tuberculosis; assay: Antimycobacterial activity against Mycobacterium tuberculosis H37Rv infected in human primary macrophages assessed as reduction in colony forming unit at 5 uM after 2 hrs followed by compound wash out and measured after 7 days by serial dilution method relative to control; assay type: functional
[12] = target: T1, Decaprenylphosphoryl-beta-D-ribose oxidase; assay: Inhibition of N-terminal His6-thioredoxin tagged Mycobacterium tuberculosis H37Rv DprE1 expressed in Escherichia coli BL21(DE3) using FPR as substrate by resazurin dye-based fluorescence assay
[13] = test system: Mycobacterium tuberculosis; assay: Antimycobacterial activity against Mycobacterium tuberculosis in 7H9 medium; assay type: functional, organism-based
[14] = test system: Mycobacterium tuberculosis; assay: Antimycobacterial activity against Mycobacterium tuberculosis in biofilm medium; assay type: functional, organism-based
[15] = Binding affinity to Mycobacterium tuberculosis DprE1
[16] = Inhibition of Mycobacterium tuberculosis DprE1 using FPR as substrate by resazurin dye-based fluorescence assay
Cytochrome P450 2C9 = Cytochrome P450 2C9 (Homo sapiens, UniProt P11712); assay: Inhibition of CYP2C9 in human liver microsomes using diclofenac as substrate after 30 mins by in presence of NADPH by LC-MS/MS analysis; assay type: ADME
[17] = target: T2, Decaprenylphosphoryl-beta-D-ribose oxidase (Mycobacterium tuberculosis (strain ATCC 25618 / H37Rv)); assay: Inhibition of GFP-fused Mycobacterium tuberculosis H37Rv DprE1 after 72 hrs by fluorescence assay
[18] = test system: Mycobacterium tuberculosis; assay: Bactericidal activity against recombinant GFP-fused Mycobacterium tuberculosis H37Rv by resazurin dye-based assay; assay type: functional
[19] = test system: Mycobacterium tuberculosis; assay: Antimycobacterial activity against recombinant GFP-fused Mycobacterium tuberculosis H37Rv after 10 days by resazurin dye-based assay; assay type: functional; conditions: 240 h

Chain of Cytochrome P450 2C9 (P11712 whole entry, the tested form may be a part): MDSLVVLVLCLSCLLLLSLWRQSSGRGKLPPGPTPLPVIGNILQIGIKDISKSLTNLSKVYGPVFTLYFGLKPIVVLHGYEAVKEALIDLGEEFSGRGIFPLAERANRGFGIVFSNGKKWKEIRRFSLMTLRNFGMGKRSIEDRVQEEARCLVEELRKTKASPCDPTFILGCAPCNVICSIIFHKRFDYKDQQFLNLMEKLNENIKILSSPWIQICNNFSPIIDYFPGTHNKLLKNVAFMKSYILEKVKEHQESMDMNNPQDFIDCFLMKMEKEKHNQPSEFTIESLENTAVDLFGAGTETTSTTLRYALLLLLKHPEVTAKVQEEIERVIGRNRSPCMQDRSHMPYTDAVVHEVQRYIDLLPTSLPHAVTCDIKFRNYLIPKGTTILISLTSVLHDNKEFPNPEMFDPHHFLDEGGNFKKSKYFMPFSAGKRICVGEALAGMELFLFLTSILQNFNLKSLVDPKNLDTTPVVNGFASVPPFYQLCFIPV

SMILES: C[C@H]1COC2(CCN(c3nc(=O)c4cc(C(F)(F)F)cc([N+](=O)[O-])c4s3)CC2)O1 [BTZ-043]
- MIC [1]: 0.001 µg/mL (≈ 0.00232 µM)

SMILES: O=C(O)c1nc2ccc(C(F)(F)F)cc2nc1NCc1ccc(C(F)(F)F)cc1
- pIC50 [2]: 6.92
- MIC99 [3]: 6.3 µM (≈ 2.62 µg/mL)

SMILES: CCOC(=O)c1nc2ccc(C(F)(F)F)cc2nc1NCc1ccc(OC)cc1
- inhibition [4]: 54%
- MIC99 [3]: 3.1 µM (≈ 1.26 µg/mL)

SMILES: Cc1ccc(C)n1-c1cc(C(F)(F)F)cc2c(=O)nc(N3CCC4(CC3)OC[C@H](C)O4)sc12
- MIC [5]: 2.5 µg/mL (≈ 5.21 µM)

SMILES: O=C(NCCOc1ccccc1F)c1cc([N+](=O)[O-])cc([N+](=O)[O-])c1
- MIC [6]: 0.7 µM (≈ 0.244 µg/mL)

SMILES: O=c1nc(N2CCN(CC3CCCCC3)CC2)sc2c(-n3cccc3)cc(C(F)(F)F)cc12
- MIC [5]: 0.16 µg/mL (≈ 0.336 µM)

SMILES: O=C(NCCOCc1cccc(Cl)c1)c1cc([N+](=O)[O-])cc([N+](=O)[O-])c1
- MIC [6]: 1 µM (≈ 0.38 µg/mL)

SMILES: Cc1ccc(C(F)(F)F)cc1CNCc1cc2c(C)nn(-c3ccccc3)c2[nH]c1=O
- MIC [7]: 0.8 µM (≈ 0.341 µg/mL)

SMILES: CCCCN1CCN(c2nc(=O)c3cc(C(F)(F)F)cc(-n4cccc4)c3s2)CC1
- MIC [5]: 0.62 µg/mL (≈ 1.42 µM)

SMILES: Cc1c(CCC(=O)N2CCCC2)c(=O)n2c([nH]c3ccccc32)c1C#N
- Ratio IC50 [8]: 36
- pIC50 [9]: 7.15

SMILES: O=C(NCCOCc1ccccc1)c1cc([N+](=O)[O-])cc([N+](=O)[O-])c1
- MIC [6]: 0.2 µM (≈ 0.0691 µg/mL)

SMILES: COc1ccc(OCCNC(=O)c2cc([N+](=O)[O-])cc([N+](=O)[O-])c2)cc1
- fold change (FC) [10]: 10
- fold change (FC) [11]: 10
- MIC [6]: 0.2 µM (≈ 0.0723 µg/mL)

SMILES: COc1ccc(CNc2nc3cc(C(F)(F)F)ccc3nc2C(=O)O)cc1
- pIC50 [2]: 7.39
- MIC99 [3]: 3.1 µM (≈ 1.17 µg/mL)

SMILES: CCOC(=O)NC(=O)c1ccsc1NC(=O)c1ccn2cnnc2c1
- pIC50 [12]: 7.22

SMILES: CCOC(=O)NC(=O)c1ccsc1NC(=O)c1nc2ccccc2s1
- IC50 [13]: 0.19 µg/mL (≈ 0.506 µM)
- IC50 [14]: 0.01 µg/mL (≈ 0.0266 µM)

SMILES: O=C(C1CCN(c2nnc(-n3cccc3)s2)CC1)N1CCC(Cc2ccccc2)CC1
- pKd [15]: 6.60
- pIC50 [16]: 7.27

SMILES: COc1ccc(CNc2nc3cc(C(F)(F)F)ccc3nc2C(=O)O)cc1F
- pIC50 [2]: 7.10
- MIC99 [3]: 6.3 to 12.5 µM (≈ 2.49 to 4.94 µg/mL)

SMILES: Cc1ccc(C(F)(F)F)cc1CNCc1cc2c(C3CC3)nn(-c3ccccc3)c2[nH]c1=O
- MIC [7]: 0.1 µM (≈ 0.0452 µg/mL)

SMILES: Cc1ccnc(NC(=O)c2ccsc2NC(=O)c2ccn3cnnc3c2)n1
- pIC50 (Cytochrome P450 2C9): < 4.30
- pIC50 [12]: 7.52

SMILES: Nc1cc(C(=O)NCCOCc2cccc(Cl)c2)cc([N+](=O)[O-])c1
- MIC [6]: > 20 µM

SMILES: Cc1nc2c([N+](=O)[O-])cc(C(F)(F)F)cc2nc1-c1ccccc1
- MIC [3]: 6.25 µM (≈ 2.08 µg/mL)

SMILES: O=C(NCCOCc1ccccc1F)c1cc([N+](=O)[O-])cc([N+](=O)[O-])c1
- MIC [6]: 0.08 µM (≈ 0.0291 µg/mL)

SMILES: CCOc1ccc(CNc2nc3cc(C(F)(F)F)ccc3nc2C(=O)O)cc1
- pIC50 [2]: 7.06
- MIC99 [3]: 3.1 µM (≈ 1.21 µg/mL)

SMILES: COc1ccc(O[C@H]2CCCN(C(=O)c3cc([N+](=O)[O-])cc([N+](=O)[O-])c3)C2)cc1
- MIC [6]: 20 µM (≈ 8.03 µg/mL)

SMILES: O=C(NCCOCc1cccc(C(F)(F)F)c1)c1cc([N+](=O)[O-])cc([N+](=O)[O-])c1
- MIC [6]: 0.2 µM (≈ 0.0827 µg/mL)

SMILES: C[C@H]1COC2(CCN(c3nc(=O)c4cc(C(F)(F)F)cc(-n5cccc5)c4s3)CC2)O1
- MIC [5]: 0.16 µg/mL (≈ 0.354 µM)

SMILES: CC[C@@H](CO)NCCN[C@@H](CC)CO [ETHAMBUTOL]
- MIC [1]: 1000 to 5000 µg/mL (≈ 4890 to 24500 µM)

SMILES: Cc1nc2cc(Br)cc([N+](=O)[O-])c2nc1-c1ccccc1
- MIC [3]: 3.1 µM (≈ 1.07 µg/mL)

SMILES: O=C(NCCOCc1cccc(Cl)c1)c1cccc([N+](=O)[O-])c1
- MIC [6]: > 20 µM

SMILES: NNC(=O)c1ccncc1 [ISONIAZID]
- MIC [1]: 20 to 200 µg/mL (≈ 146 to 1460 µM)

SMILES: O=C(O)c1nc2ccc(C(F)(F)F)cc2nc1NCc1ccc(F)cc1
- pIC50 [2]: 7.14
- MIC99 [3]: 12.5 µM (≈ 4.57 µg/mL)

SMILES: N#Cc1ccc(CNc2nc3cc(C(F)(F)F)ccc3nc2C(=O)O)cc1
- pIC50 [2]: 7.17
- MIC99 [3]: 50 µM (≈ 18.6 µg/mL)

SMILES: O=C(NCCOCc1cccc(Cl)c1)c1cc(NO)cc([N+](=O)[O-])c1
- MIC [6]: > 20 µM

SMILES: COc1ccc(O[C@H]2CCN(C(=O)c3cc([N+](=O)[O-])cc([N+](=O)[O-])c3)C2)cc1
- MIC [6]: 20 µM (≈ 7.75 µg/mL)

SMILES: COC(=O)c1ccc(O[C@H]2CCN(C(=O)c3cc([N+](=O)[O-])cc([N+](=O)[O-])c3)C2)cc1
- MIC [6]: > 20 µM

SMILES: CC(C)(C)c1ccc(Cn2cnc([N+](=O)[O-])n2)cc1
- IC90 [17]: 500 nM

SMILES: Cc1ccc(C(F)(F)F)cc1CNCc1cc2c(C(C)C)nn(-c3ccccc3)c2[nH]c1=O
- MIC [7]: 0.4 µM (≈ 0.182 µg/mL)

SMILES: CCc1nc2cc(Cl)ccn2c1C(=O)NCc1ccc(N2CCN(c3ccc(F)cc3)CC2)cc1
- MBC [18]: > 200 µM
- pIC50 [2]: < 5.00
- MIC [19]: 0.017 µM

SMILES: O=C(O)c1nc2ccc(C(F)(F)F)cc2nc1NCc1ccc(Cl)cc1
- pIC50 [2]: 7.30
- MIC99 [3]: 3.1 µM (≈ 1.18 µg/mL)

SMILES: Cc1nc2cc(C(F)(F)F)cc([N+](=O)[O-])c2nc1-c1ccccc1
- MIC [3]: 0.75 µM (≈ 0.25 µg/mL)
